{
  "source": "ChEMBL document CHEMBL1153152",
  "about": "“Amino acid based enantiomerically pure 3-substituted benzofused heterocycles: A new class of antithrombotic agents” (Bioorg Med Chem Lett, 2010)",
  "key": {"[1]": {"tested_on": "Mus musculus", "assay": "Toxicity in mouse assessed as increase in bleeding time at 30 mg/kg, po", "assay_type": "organism-based", "parameters": "dose 30 mg/kg, route oral", "conditions": "in vivo"}, "[2]": {"tested_on": "Mus musculus", "assay": "Antithrombotic activity in mouse assessed as protection against collagen and adrenaline-induced hind limb paralysis at 30 mg/kg, po for 60 mins", "assay_type": "functional, Hindlimb"}},
  "data": [
    {"smiles": "Cc1ccc(S(=O)(=O)N2C[C@H](Cc3ccc(OCc4ccccc4)cc3)N(S(=O)(=O)c3ccc(C)cc3)Cc3ccccc32)cc1", "values": [
      {"measurement": "Activity", "setting": "[1]", "result": 4, "unit": "%"},
      {"measurement": "Activity", "setting": "[2]", "result": 20, "unit": "%"}
    ]},
    {"smiles": "Cc1ccc(S(=O)(=O)N2CCc3ccccc3OC[C@@H]2C)cc1", "values": [
      {"measurement": "Activity", "setting": "[1]", "result": "Non-toxic"},
      {"measurement": "Activity", "setting": "[2]", "result": 40, "unit": "%"}
    ]},
    {"smiles": "Cc1ccc(S(=O)(=O)N2CCc3ccccc3OC[C@@H]2Cc2ccc(O)cc2)cc1", "values": [
      {"measurement": "Activity", "setting": "[1]", "result": "Non-toxic"},
      {"measurement": "Activity", "setting": "[2]", "result": 40, "unit": "%"}
    ]},
    {"smiles": "COc1ccc2c(c1)CN(S(=O)(=O)c1ccc(C)cc1)[C@@H](CC(C)C)CO2", "values": [
      {"measurement": "Activity", "setting": "[1]", "result": 6, "unit": "%"},
      {"measurement": "Activity", "setting": "[2]", "result": 30, "unit": "%"}
    ]},
    {"smiles": "Cc1ccc(S(=O)(=O)N2C[C@H](Cc3ccccc3)N(S(=O)(=O)c3ccc(C)cc3)CCc3ccccc32)cc1", "values": [
      {"measurement": "Activity", "setting": "[1]", "result": 22, "unit": "%"},
      {"measurement": "Activity", "setting": "[2]", "result": 20, "unit": "%"}
    ]},
    {"smiles": "Cc1ccc(S(=O)(=O)N2Cc3ccccc3OC[C@@H]2CC(C)C)cc1", "values": [
      {"measurement": "Activity", "setting": "[1]", "result": 60, "unit": "%"},
      {"measurement": "Activity", "setting": "[2]", "result": 10, "unit": "%"}
    ]},
    {"smiles": "COc1cccc2c1OC[C@H](Cc1ccc(O)cc1)N(S(=O)(=O)c1ccc(C)cc1)C2", "values": [
      {"measurement": "Activity", "setting": "[1]", "result": 24, "unit": "%"},
      {"measurement": "Activity", "setting": "[2]", "result": 45, "unit": "%"}
    ]},
    {"smiles": "COc1ccc2c(c1)CN(S(=O)(=O)c1ccc(C)cc1)[C@@H](Cc1c[nH]c3ccccc13)CO2", "values": [
      {"measurement": "Activity", "setting": "[1]", "result": 12, "unit": "%"},
      {"measurement": "Activity", "setting": "[2]", "result": 20, "unit": "%"}
    ]},
    {"smiles": "Cc1ccc(S(=O)(=O)N2C[C@H](Cc3ccc(OCc4ccccc4)cc3)N(S(=O)(=O)c3ccc(C)cc3)CCc3ccccc32)cc1", "values": [
      {"measurement": "Activity", "setting": "[1]", "result": "Non-toxic"},
      {"measurement": "Activity", "setting": "[2]", "result": 30, "unit": "%"}
    ]},
    {"smiles": "Cc1ccc(S(=O)(=O)N2Cc3ccccc3OC[C@@H]2C(C)C)cc1", "values": [
      {"measurement": "Activity", "setting": "[1]", "result": 22, "unit": "%"},
      {"measurement": "Activity", "setting": "[2]", "result": 20, "unit": "%"}
    ]},
    {"smiles": "Cc1ccc(S(=O)(=O)N2Cc3ccccc3OC[C@@H]2Cc2ccc(O)cc2)cc1", "values": [
      {"measurement": "Activity", "setting": "[1]", "result": "Non-toxic"},
      {"measurement": "Activity", "setting": "[2]", "result": 0, "unit": "%"}
    ]},
    {"smiles": "Cc1ccc(S(=O)(=O)N2Cc3ccccc3OC[C@@H]2Cc2c[nH]c3ccccc23)cc1", "values": [
      {"measurement": "Activity", "setting": "[1]", "result": 33, "unit": "%"},
      {"measurement": "Activity", "setting": "[2]", "result": 40, "unit": "%"}
    ]},
    {"smiles": "Cc1ccc(S(=O)(=O)N2Cc3ccccc3OC[C@@H]2Cc2ccccc2)cc1", "values": [
      {"measurement": "Activity", "setting": "[1]", "result": "Non-toxic"},
      {"measurement": "Activity", "setting": "[2]", "result": 20, "unit": "%"}
    ]},
    {"smiles": "Cc1ccc(S(=O)(=O)N2C[C@H](Cc3ccccc3)N(S(=O)(=O)c3ccc(C)cc3)Cc3ccccc32)cc1", "values": [
      {"measurement": "Activity", "setting": "[1]", "result": 13, "unit": "%"},
      {"measurement": "Activity", "setting": "[2]", "result": 20, "unit": "%"}
    ]},
    {"smiles": "Cc1ccc(S(=O)(=O)N2Cc3ccccc3SC[C@@H]2Cc2ccc(OCc3ccccc3)cc2)cc1", "values": [
      {"measurement": "Activity", "setting": "[1]", "result": 28, "unit": "%"},
      {"measurement": "Activity", "setting": "[2]", "result": 10, "unit": "%"}
    ]},
    {"smiles": "Cc1ccc(S(=O)(=O)N2Cc3ccccc3OC[C@@H]2C)cc1", "values": [
      {"measurement": "Activity", "setting": "[1]", "result": 25, "unit": "%"},
      {"measurement": "Activity", "setting": "[2]", "result": 20, "unit": "%"}
    ]},
    {"smiles": "CC(=O)Oc1ccccc1C(=O)O", "note": "[ASPIRIN]", "values": [
      {"measurement": "Activity", "setting": "[1]", "result": 100, "unit": "%"},
      {"measurement": "Activity", "setting": "[2]", "result": 37, "unit": "%"}
    ]}
  ]
}
